Test results reported in publication PMC5041959, “A high-content EMT screen identifies multiple receptor tyrosine kinase inhibitors with activity on TGFβ receptor” (Oncotarget, 2016).
Like-named read-outs stand apart in the source and are kept apart here.

Tests used:
[1] = target: ROCK2 (Homo sapiens, UniProt O75116); test: Biochemical kinase profiling (33PanQinase radiometric assay)
[2] = tested on: NMuMG cells; test: High-content microscopy EMT screen in TGFβ-treated NMuMG cells (FA, SF, FN, cell count); format: cell-based, murine
[3] = target: TGFBR2 (Homo sapiens, UniProt P37173); test: Biochemical kinase profiling (33PanQinase radiometric assay)
Chain of TGFBR2 (P37173 23-567): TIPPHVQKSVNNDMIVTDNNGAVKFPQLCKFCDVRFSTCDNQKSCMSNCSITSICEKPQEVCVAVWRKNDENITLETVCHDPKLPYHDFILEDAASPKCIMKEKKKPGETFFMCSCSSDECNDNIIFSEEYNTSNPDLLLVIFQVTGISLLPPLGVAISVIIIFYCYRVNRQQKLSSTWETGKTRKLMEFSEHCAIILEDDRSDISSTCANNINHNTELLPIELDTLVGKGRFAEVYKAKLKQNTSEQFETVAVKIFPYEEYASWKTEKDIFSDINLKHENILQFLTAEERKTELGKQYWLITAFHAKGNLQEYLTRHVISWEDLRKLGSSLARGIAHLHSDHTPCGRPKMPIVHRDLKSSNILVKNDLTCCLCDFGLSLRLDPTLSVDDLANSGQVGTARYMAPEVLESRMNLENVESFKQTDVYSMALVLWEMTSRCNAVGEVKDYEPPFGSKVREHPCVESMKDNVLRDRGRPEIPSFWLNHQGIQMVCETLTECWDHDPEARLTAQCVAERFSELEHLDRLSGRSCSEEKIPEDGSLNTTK

[4] = target: T1, TGFBR1 (Homo sapiens, UniProt P36897); test: as above
T1 sequence (P36897 34-503): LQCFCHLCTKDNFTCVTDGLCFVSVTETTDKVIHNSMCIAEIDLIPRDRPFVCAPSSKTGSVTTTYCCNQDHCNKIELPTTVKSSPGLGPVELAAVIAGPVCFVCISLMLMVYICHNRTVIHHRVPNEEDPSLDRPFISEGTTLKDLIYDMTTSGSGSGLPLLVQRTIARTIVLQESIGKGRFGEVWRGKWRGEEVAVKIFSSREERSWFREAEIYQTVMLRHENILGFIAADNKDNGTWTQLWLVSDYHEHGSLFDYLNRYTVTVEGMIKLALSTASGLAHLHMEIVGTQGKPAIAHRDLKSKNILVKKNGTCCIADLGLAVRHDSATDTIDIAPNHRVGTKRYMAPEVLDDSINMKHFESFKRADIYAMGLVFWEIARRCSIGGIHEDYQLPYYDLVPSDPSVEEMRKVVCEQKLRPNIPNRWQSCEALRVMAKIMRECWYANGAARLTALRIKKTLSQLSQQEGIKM

[5] = target: ROCK1 (Homo sapiens, UniProt Q13464); test: as above
Chain of ROCK1 (Q13464 whole entry): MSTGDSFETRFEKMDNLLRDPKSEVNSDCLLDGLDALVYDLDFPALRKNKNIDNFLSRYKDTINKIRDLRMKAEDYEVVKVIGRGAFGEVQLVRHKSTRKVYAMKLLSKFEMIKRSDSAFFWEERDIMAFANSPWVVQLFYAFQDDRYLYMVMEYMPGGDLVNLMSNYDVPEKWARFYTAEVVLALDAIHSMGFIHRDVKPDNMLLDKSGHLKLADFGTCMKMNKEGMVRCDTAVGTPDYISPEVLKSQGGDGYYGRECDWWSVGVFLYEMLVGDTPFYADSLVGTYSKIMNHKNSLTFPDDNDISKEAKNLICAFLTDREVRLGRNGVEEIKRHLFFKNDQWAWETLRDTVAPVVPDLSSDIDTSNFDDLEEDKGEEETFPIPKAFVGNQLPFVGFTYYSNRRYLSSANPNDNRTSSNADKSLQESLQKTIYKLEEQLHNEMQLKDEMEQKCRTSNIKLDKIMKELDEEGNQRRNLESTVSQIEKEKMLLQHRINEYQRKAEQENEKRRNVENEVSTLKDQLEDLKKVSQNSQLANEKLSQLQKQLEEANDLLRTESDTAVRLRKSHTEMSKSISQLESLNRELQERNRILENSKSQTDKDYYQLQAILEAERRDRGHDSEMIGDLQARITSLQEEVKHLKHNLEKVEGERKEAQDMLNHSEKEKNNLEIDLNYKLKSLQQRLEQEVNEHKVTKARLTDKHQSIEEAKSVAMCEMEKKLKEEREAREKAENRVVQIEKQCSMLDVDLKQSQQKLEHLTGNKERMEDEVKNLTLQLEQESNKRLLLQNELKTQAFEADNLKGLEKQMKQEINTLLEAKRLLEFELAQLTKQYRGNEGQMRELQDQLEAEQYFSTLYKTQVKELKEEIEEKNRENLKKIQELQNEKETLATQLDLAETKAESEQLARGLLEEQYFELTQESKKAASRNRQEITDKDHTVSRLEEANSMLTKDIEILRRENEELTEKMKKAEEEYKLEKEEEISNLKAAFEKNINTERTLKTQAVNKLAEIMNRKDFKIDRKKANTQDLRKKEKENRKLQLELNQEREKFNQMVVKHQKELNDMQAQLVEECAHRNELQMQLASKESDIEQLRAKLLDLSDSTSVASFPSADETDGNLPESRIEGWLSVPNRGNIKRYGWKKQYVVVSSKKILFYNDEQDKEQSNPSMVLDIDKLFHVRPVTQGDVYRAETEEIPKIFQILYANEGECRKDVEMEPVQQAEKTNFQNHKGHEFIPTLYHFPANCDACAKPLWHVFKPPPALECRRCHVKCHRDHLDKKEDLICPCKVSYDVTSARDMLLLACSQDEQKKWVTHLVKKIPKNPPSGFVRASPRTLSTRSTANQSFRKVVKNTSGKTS

[6] = target: SRC (Homo sapiens, UniProt P12931); test: as above
Chain of SRC (P12931 whole entry): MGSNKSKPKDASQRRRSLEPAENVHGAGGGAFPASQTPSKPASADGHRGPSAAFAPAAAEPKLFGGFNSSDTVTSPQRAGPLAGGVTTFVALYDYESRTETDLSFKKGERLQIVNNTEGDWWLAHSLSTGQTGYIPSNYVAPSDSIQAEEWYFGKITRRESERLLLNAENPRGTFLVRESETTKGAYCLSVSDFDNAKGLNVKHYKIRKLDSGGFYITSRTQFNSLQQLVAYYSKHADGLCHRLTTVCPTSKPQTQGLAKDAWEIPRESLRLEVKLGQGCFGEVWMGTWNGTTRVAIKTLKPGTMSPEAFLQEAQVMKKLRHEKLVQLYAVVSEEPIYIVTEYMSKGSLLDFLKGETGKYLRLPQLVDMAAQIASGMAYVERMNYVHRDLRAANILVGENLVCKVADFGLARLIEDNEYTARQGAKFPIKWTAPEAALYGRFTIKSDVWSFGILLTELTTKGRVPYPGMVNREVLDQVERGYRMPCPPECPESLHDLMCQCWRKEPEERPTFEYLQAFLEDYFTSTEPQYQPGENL

[7] = target: PDGFRA (Homo sapiens, UniProt P16234); test: as above
[8] = target: PDGFRB (Homo sapiens, UniProt P09619); test: as above
Chain of PDGFRB (P09619 33-1106): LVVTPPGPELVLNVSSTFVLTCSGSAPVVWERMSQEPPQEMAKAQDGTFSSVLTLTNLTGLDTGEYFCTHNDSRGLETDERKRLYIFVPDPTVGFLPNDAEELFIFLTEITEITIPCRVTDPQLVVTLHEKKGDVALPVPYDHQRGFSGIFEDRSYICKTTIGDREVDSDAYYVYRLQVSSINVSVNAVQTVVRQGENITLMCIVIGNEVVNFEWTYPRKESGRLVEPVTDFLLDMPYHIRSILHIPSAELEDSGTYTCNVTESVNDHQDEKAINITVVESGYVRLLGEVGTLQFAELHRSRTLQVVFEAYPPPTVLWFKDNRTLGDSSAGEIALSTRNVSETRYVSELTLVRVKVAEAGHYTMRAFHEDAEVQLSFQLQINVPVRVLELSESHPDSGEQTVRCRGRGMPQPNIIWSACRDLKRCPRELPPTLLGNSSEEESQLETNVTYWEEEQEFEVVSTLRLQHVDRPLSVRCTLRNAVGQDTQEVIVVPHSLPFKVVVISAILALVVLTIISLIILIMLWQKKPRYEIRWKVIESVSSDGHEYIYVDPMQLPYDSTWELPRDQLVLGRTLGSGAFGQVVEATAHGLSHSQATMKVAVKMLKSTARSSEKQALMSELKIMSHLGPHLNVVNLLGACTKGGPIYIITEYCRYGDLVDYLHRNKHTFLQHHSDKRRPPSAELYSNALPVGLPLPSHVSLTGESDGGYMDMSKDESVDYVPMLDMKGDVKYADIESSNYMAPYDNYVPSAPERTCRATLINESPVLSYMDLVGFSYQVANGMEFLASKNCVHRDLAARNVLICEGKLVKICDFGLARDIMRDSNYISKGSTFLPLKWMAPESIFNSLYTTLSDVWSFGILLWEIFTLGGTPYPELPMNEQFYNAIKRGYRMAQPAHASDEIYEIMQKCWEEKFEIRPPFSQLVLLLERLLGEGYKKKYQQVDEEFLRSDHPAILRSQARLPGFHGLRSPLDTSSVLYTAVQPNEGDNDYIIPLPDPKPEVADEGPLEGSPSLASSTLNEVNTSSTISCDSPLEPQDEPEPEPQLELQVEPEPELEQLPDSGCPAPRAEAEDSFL

[9] = target: FGFR4 (Homo sapiens, UniProt P22455); test: as above
Chain of FGFR4 (P22455 22-802): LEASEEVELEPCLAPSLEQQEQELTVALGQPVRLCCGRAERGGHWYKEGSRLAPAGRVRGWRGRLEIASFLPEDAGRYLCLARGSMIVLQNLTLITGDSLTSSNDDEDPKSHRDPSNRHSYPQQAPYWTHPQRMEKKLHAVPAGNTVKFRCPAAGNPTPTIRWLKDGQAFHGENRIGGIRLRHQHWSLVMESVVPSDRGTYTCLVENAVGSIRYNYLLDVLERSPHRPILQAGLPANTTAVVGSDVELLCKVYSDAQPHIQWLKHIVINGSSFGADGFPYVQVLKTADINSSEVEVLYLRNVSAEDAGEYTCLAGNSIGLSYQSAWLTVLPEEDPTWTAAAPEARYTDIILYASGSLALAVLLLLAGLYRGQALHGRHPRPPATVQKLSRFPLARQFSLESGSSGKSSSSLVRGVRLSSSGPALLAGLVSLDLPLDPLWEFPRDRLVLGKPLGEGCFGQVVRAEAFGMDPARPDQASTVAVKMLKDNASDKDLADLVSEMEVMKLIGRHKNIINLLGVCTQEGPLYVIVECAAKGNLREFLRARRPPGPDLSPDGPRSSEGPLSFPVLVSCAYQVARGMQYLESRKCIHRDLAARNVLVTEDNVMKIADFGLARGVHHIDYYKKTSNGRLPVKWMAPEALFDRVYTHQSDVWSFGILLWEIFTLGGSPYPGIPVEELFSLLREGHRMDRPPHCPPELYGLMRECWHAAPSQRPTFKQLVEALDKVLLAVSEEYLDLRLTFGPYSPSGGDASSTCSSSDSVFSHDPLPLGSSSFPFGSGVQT

[10] = tested on: Py2T cells; test: High-content microscopy EMT assay in TGFβ-treated Py2T breast cancer cells; format: cell-based, murine; settings: for FA IC50 (focal adhesions) / FN IC50 (fibronectin patches) / SF IC50 (stress fibers): TGFβ plus compound, 4 days; for Emax (maximal effect on cell count): compared to reference 10 μM SB-431542 = 100%
[11] = target: FGFR2 (Homo sapiens, UniProt P21802); test: Biochemical kinase profiling (33PanQinase radiometric assay)
Chain of FGFR2 (P21802 22-821): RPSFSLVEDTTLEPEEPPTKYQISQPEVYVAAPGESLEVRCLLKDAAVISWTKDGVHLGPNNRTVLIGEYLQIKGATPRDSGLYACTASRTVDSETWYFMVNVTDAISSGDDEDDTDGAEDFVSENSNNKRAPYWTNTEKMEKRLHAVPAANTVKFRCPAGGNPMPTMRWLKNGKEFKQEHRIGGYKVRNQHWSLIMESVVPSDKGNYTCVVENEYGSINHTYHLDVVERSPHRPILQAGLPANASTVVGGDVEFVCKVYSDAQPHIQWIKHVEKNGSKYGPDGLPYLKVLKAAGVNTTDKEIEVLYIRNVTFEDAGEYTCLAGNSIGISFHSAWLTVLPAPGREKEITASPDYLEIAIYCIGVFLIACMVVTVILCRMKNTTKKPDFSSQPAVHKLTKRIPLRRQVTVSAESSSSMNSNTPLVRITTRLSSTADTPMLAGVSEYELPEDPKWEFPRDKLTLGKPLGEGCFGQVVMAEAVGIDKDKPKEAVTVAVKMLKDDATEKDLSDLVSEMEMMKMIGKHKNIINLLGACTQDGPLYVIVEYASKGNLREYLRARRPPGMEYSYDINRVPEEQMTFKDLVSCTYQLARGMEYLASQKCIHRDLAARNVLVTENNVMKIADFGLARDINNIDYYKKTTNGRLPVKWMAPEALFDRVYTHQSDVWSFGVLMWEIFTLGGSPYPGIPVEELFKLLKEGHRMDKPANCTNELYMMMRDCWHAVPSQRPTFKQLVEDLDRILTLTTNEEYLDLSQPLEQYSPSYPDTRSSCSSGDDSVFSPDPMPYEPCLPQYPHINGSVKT

[12] = target: FGFR3 (Homo sapiens, UniProt P22607); test: as above
[13] = target: FGFR1 (Homo sapiens, UniProt P11362); test: as above; settings: read-out: FGFR1 IC50; ATP at apparent Km
[14] = tested on: ROCK; test: ROCK cellular assay (MLC Thr18/Ser19 phosphorylation ELISA in A7r5 cells); format: cell-based, rat; settings: Rattus norvegicus, 1.5 h, 90 min compound
[15] = Mus musculus; NMuMG; cell count decreased by 50% compared to DMSO control; read-out: Tox IC50
[16] = NMuMG, TGFβ1 2 ng/ml plus compound, 4 days; parameter decreased by 50%
[17] = Mus musculus, 96 h; NMuMG, TGFβ1 2 ng/ml plus compound, 4 days; parameter decreased by 50%; read-out: FA IC50 (focal adhesion formation)
[18] = Mus musculus, 96 h; NMuMG, TGFβ1 2 ng/ml plus compound, 4 days; parameter decreased by 50%; read-out: FN IC50 (fibronectin patch formation)
[19] = Mus musculus, 96 h; NMuMG, TGFβ1 2 ng/ml plus compound, 4 days; parameter decreased by 50%; read-out: SF IC50 (stress fibers)
[20] = Mus musculus; NMuMG; mean of IC50 values obtained for FA, SF, FN; read-out: EMT (FA/SF/FN) combined IC50
[21] = read-out: ROCK2 IC50, ATP at apparent Km
[22] = NMuMG; cell count decreased by 50% compared to DMSO control; read-out: Tox IC50
[23] = NMuMG; compared to reference 10 μM SB-431542 = 100%
[24] = read-out: TGFBR2 IC50, ATP at apparent Km
[25] = read-out: TGFBR1 IC50, ATP at apparent Km
[26] = read-out: ROCK1 IC50, ATP at apparent Km
[27] = read-out: FGFR2 IC50, ATP at apparent Km
[28] = read-out: FGFR3 IC50, ATP at apparent Km
[29] = read-out: FGFR4 IC50, ATP at apparent Km
[30] = Mus musculus, read-out: CCI IC50 (cell count increase)
[31] = Mus musculus, read-out: Emax (maximal effect on cell count)

FA IC50 (focal adhesion formation) [2, 16]	FN IC50 (fibronectin patch formation) [2, 16]	SF IC50 (stress fibers) [2, 16]	IC50 [4] [nM]	FA IC50 (focal adhesions) ([10]; Py2T)	FN IC50 (fibronectin patches) ([10]; Py2T)	SF IC50 (stress fibers) ([10]; Py2T)	SMILES	IC50 [1] [µM]	IC50 [2, 15] [nM]	IC50 [3] [nM]	IC50 [5] [µM]	IC50 [6] [µM]	IC50 [8] [µM]	IC50 [9] [nM]	Emax (maximal effect on cell count) ([10]; Py2T)	IC50 [2, 17] [nM]	IC50 [2, 18] [nM]	IC50 [2, 19] [nM]	IC50 [2, 20] [nM]	Emax (maximal effect on cell count) [2, 23]	also measured
–	–	–	6.8	n.m.	n.m.	n.m.	CCN(CC)CCOc1ccc(Nc2ncc3cc(-c4c(Cl)cccc4Cl)c(=O)n(C)c3n2)cc1 [PD-166285]	–	229	–	–	–	–	55.5	n.m.	27	39	79	48.3	–	IC50 ([10]; Mus musculus, Py2T, cell count decreased by 50% compared to DMSO control, read-out: Tox IC50): 138 nM; IC50 ([2]; Mus musculus; read-out: CCI IC50 (cell count increase)): 17 nM; Emax ([2]; Mus musculus; read-out: Emax (maximal effect on cell count)): 24%; IC50 ([3]; TGFBR2 IC50, ATP at apparent Km): 137 nM; IC50 [11]: 1.8 nM; IC50 [12]: 9 nM
n.m.	n.m.	n.m.	–	–	–	–	COc1cc(OC)cc(-c2cc3cnc(N)nc3nc2NC(=O)NC(C)(C)C)c1 [PD-166866]	–	–	–	–	–	–	–	–	–	–	–	–	n.m.	IC50 [1, 21]: > 10 µM; IC50 [2, 22]: 3360 nM; CCI IC50 (cell count increase) ([2]; NMuMG; cell count increased by 50% compared to 100% with 10 μM SB-431542): n.m.; IC50 [3, 24]: > 10000 nM; IC50 [4, 25]: > 10000 nM; IC50 [5, 26]: > 10 µM; IC50 [11, 27]: 10.2 nM; IC50 [12, 28]: 49.3 nM; IC50 [13]: 22.5 nM; IC50 [9, 29]: 492 nM
–	–	–	–	n.m.	n.m.	n.m.	CCN(CC)CCCCNc1ncc2cc(-c3c(Cl)cccc3Cl)c(NC(=O)NC(C)(C)C)nc2n1 [PD-161570]	–	–	–	–	–	–	–	43%	–	–	–	–	50.8%	IC50 [1, 21]: > 10 µM; IC50 ([10]; Py2T, cell count decreased by 50% compared to DMSO control, read-out: Tox IC50): 479 nM; IC50 ([10]; Py2T, compared to 10 μM SB-431542, read-out: CCI IC50 (cell count increase)): 232 nM; IC50 ([2]; NMuMG, TGFβ1 2 ng/ml plus compound, 4 days; parameter decreased by 50%; read-out: FA IC50 (focal adhesion formation)): 337 nM; IC50 ([2]; NMuMG, TGFβ1 2 ng/ml plus compound, 4 days; parameter decreased by 50%; read-out: FN IC50 (fibronectin patch formation)): 1040 nM; IC50 ([2]; NMuMG, TGFβ1 2 ng/ml plus compound, 4 days; parameter decreased by 50%; read-out: SF IC50 (stress fibers)): 702 nM; IC50 [2, 22]: 4970 nM; IC50 ([2]; NMuMG; cell count increased by 50% compared to 100% with 10 μM SB-431542; read-out: CCI IC50 (cell count increase)): 525 nM; IC50 ([2]; NMuMG; mean of IC50 values obtained for FA, SF, FN; read-out: EMT (FA/SF/FN) combined IC50): 694 nM; IC50 [3, 24]: 1280 nM; IC50 [4, 25]: 44.9 nM; IC50 [5, 26]: > 10 µM; IC50 ([6]; read-out: SRC IC50, ATP at apparent Km): 0.0052 µM; IC50 [11, 27]: 6.5 nM; IC50 [12, 28]: 27.2 nM; IC50 ([7]; read-out: PDGFRA IC50, ATP at apparent Km): 2370 nM; IC50 ([8]; read-out: PDGFRB IC50, ATP at apparent Km): 0.0958 µM; IC50 [9, 29]: 667 nM

More lines, now with the values behind:

SMILES	FA IC50 (focal adhesion formation) [2, 16]	FN IC50 (fibronectin patch formation) [2, 16]	SF IC50 (stress fibers) [2, 16]	IC50 [4] [nM]	FA IC50 (focal adhesions) ([10]; Py2T)	FN IC50 (fibronectin patches) ([10]; Py2T)	SF IC50 (stress fibers) ([10]; Py2T)	IC50 [1] [µM]	IC50 [2, 15] [nM]	IC50 [3] [nM]	IC50 [5] [µM]	IC50 [6] [µM]	IC50 [8] [µM]	IC50 [9] [nM]	Emax (maximal effect on cell count) ([10]; Py2T)	IC50 [2, 17] [nM]	IC50 [2, 18] [nM]	IC50 [2, 19] [nM]	IC50 [2, 20] [nM]	Emax (maximal effect on cell count) [2, 23]	also measured
CCN(CC)CCCCNc1ncc2cc(-c3cc(OC)cc(OC)c3)c(NC(=O)NC(C)(C)C)nc2n1 [PD-173074]	n.m.	n.m.	n.m.	> 10000	–	–	–	> 10	3220	> 10000	> 10	6.73	3.39	418	–	–	–	–	–	–	Emax (maximal effect on cell count) [2]: n.m.; IC50 [7]: > 10000 nM
CCN1CCN(c2ccc(Nc3cc(N(C)C(=O)Nc4c(Cl)c(OC)cc(OC)c4Cl)ncn3)cc2)CC1 [BGJ398]	n.m.	n.m.	n.m.	> 10000	–	–	–	> 10	1500	> 10000	> 10	7.94	7.43	–	–	–	–	–	–	n.m.	–
CCn1c(-c2nonc2N)nc2cncc(C(=O)N3CC[C@H](N)C3)c21 [SB-772077B]	–	–	–	–	–	–	–	–	5330	–	–	–	–	–	–	51	54	29	44.7	–	IC50 [10, 30]: 28.4 nM; Emax [10, 31]: 63.6%; IC50 ([10]; Mus musculus, read-out: Tox IC50): 1960 nM; IC50 [14]: 28 nM; IC50 [2, 30]: 50.5 nM; Emax [2, 31]: 30.5%
